Structures are written as SMILES.

One assay relates to HCV 1b genotype. The assay is described as follows: HCV Replicon assay. The format is cell-based. To be noted: HCV 1b genotype replicon; read-out: 1b EC50 Range. On the procedure: An HCV Replicon assay was utilized in the present disclosure, and was prepared, conducted and validated as described in commonly owned PCT/US2006/022197 and in O'Boyle et. al. Antimicrob Agents Chemother. 2005 April; 49(4):1346-53. Assay methods incorporating luciferase reporters have also been used as described (Apath.com).
HCV-neo replicon cells and replicon cells containing mutations in the NS5A region were used to test the currently described family of compounds. The compounds were determined to have more than 10-fold less inhibitory activity on cells containing mutations than wild-type cells. Thus, the compounds of the present disclosure can be effective in inhibiting the function of the HCV NS5A protein and are understood to be as effective in combinations as previously described in application PCT/US2006/022197 and commonly owned WO/04014852. Further, the compounds of the present disclosure can be effective against the HCV 1b genotype. It should also be understood that the compounds of the present disclosure can inhibit multiple genotypes of HCV. […] In one embodiment, compounds of the present disclosure are inhibitory versus 1a, 1b, 2a, 2b, 3a, 4a, and 5a genotypes.
As to `COC(=O)N[C@@H](C)C(=O)N1CCC[C@H]1c1nc(C2=CCC(c3ccc(-c4c[nH]c([C@@H]5CCCN5C(=O)[C@H](C)NC(=O)OC)n4)cc3)CC2)c[nH]1` (stereo partly drawn) [QC-10, methyl ((1S)-2-((2S)-2-(4-(4-(4-(2-((2S)-1-(N-(methoxycarbonyl)-1-alanyl)-2-pyrrolidinyl)-1H-imidazol-4-yl)-3-cyclohexen-1-yl)phenyl)-1H-imidazol-2-yl)-1-pyrrolidinyl)-1-methyl-2-oxoethyl)carbamate], the EC50 was in the range of 4.57 to 99 nM.
On the same count and under the same terms, in the case of `COC(=O)N[C@H](C(=O)N1CCC[C@H]1c1nc(-c2ccc(C3CCC(c4c[nH]c([C@@H]5CCCN5C(=O)[C@@H](NC(=O)OC)C(C)C)n4)CC3)cc2)c[nH]1)C(C)C` (stereo partly drawn) [QC-17, methyl ((1S)-1-(((2S)-2-(4-(4-(4-(2-((2S)-1-((2S)-2-((methoxycarbonyl)amino)-3-methylbutanoyl)pyrrolidin-2-yl)-1H-imidazol-4-yl)phenyl)cyclohexyl)-1H-imidazol-2-yl)pyrrolidin-1-yl)carbonyl)-2-methylpropyl)carbamate] it was 2 to 4.57 nM.

Staying with this assay, now noted: Hepatitis C virus; HCV 1b genotype replicon; read-out: 1b EC50 (in nM or range).
For the compound `COC(=O)N[C@H](C(=O)N1CCC[C@H]1c1nc(C2CCC(C3CCC(c4c[nH]c([C@@H]5CCCN5C(=O)[C@@H](NC(=O)OC)[C@@H](C)OC)n4)CC3)CC2)c[nH]1)[C@@H](C)OC` (stereo partly drawn) [QC-8, methyl ((1S,2R)-2-methoxy-1-(((2S)-2-(4-(4′-(2-((2S)-1-(N-(methoxycarbonyl)-O-methyl-L-threonyl)-2-pyrrolidinyl)-1H-imidazol-4-yl)-1,1′-bi(cyclohexyl)-4-yl)-1H-imidazol-2-yl)-1-pyrrolidinyl)carbonyl)propyl)carbamate], the EC50 was 2.4 nM.

Staying with this assay, now noted: Hepatitis C virus; HCV 1b genotype replicon; read-out: 1b EC50 Range.
Consider `COC(=O)N[C@H](C(=O)N1CCC[C@H]1c1nc(C2CCC(C3CCC(c4c[nH]c([C@@H]5CCCN5C(=O)[C@@H](NC(=O)OC)[C@@H](C)OC)n4)CC3)CC2)c[nH]1)[C@@H](C)OC` (stereo partly drawn) [QC-8, methyl ((1S,2R)-2-methoxy-1-(((2S)-2-(4-(4′-(2-((2S)-1-(N-(methoxycarbonyl)-O-methyl-L-threonyl)-2-pyrrolidinyl)-1H-imidazol-4-yl)-1,1′-bi(cyclohexyl)-4-yl)-1H-imidazol-2-yl)-1-pyrrolidinyl)carbonyl)propyl)carbamate], for which the EC50 fell in the range of 100 to 999 nM.
The same measure, in the same setting: next, `COC[C@H](NC(=O)OC)C(=O)N1CCC[C@H]1c1nc(C2=CCC(c3ccc(-c4c[nH]c([C@@H]5CCCN5C(=O)[C@H](COC)NC(=O)OC)n4)cc3)CC2)c[nH]1` (stereo partly drawn) [QC-11, methyl ((1S)-2-((2S)-2-(4-(4-(4-(2-((2S)-1-(N-(methoxycarbonyl)-O-methyl-L-seryl)-2-pyrrolidinyl)-1H-imidazol-4-yl)-3-cyclohexen-1-yl)phenyl)-1H-imidazol-2-yl)-1-pyrrolidinyl)-1-(methoxymethyl)-2-oxoethyl)carbamate]: 4.57 to 99 nM; `COC(=O)N[C@H](C(=O)N1CCC[C@H]1c1nc(C2=CCC(c3ccc(-c4c[nH]c([C@@H]5CCCN5C(=O)[C@@H](NC(=O)OC)[C@@H](C)OC)n4)cc3)CC2)c[nH]1)[C@@H](C)OC` (stereo partly drawn) [QC-12, methyl ((1S,2R)-2-methoxy-1-(((2S)-2-(4-(4-(4-(2-((2S)-1-(N-(methoxycarbonyl)-O-methyl-L-threonyl)-2-pyrrolidinyl)-1H-imidazol-4-yl)-3-cyclohexen-1-yl)phenyl)-1H-imidazol-2-yl)-1-pyrrolidinyl)carbonyl)propyl)carbamate]: 4.57 to 99 nM.
The same measure, in the same setting: in the case of `COC(=O)N[C@H](C(=O)N1CCC[C@H]1c1nc(-c2ccc(N3CCC(c4c[nH]c([C@@H]5CCCN5C(=O)[C@@H](NC(=O)OC)C(C)C)n4)CC3)cc2)c[nH]1)C(C)C` [QC-13, methyl ((1S)-1-(((2S)-2-(4-(1-(4-(2-((2S)-1-((2S)-2-((methoxycarbonyl)amino)-3-methylbutanoyl)-2-pyrrolidinyl)-1H-imidazol-4-yl)phenyl)-4-piperidinyl)-1H-imidazol-2-yl)-1-pyrrolidinyl)carbonyl)-2-methylpropyl)carbamate] it was 4.57 to 99 nM.
Still for that read-out and setting: next, `COC[C@H](NC(=O)OC)C(=O)N1CCC[C@H]1c1nc(-c2ccc(N3CCC(c4c[nH]c([C@@H]5CCCN5C(=O)[C@H](COC)NC(=O)OC)n4)CC3)cc2)c[nH]1` [QC-14, methyl ((1S)-2-((2S)-2-(4-(4-(4-(2-((2S)-1-(N-(methoxycarbonyl)-O-methyl-L-seryl)-2-pyrrolidinyl)-1H-imidazol-4-yl)-1-piperidinyl)phenyl)-1H-imidazol-2-yl)-1-pyrrolidinyl)-1-(methoxymethyl)-2-oxoethyl)carbamate]: 100 to 999 nM; `COC(=O)N[C@H](C(=O)N1CCC[C@H]1c1nc(-c2ccc(N3CCC(c4c[nH]c([C@@H]5CCCN5C(=O)[C@@H](NC(=O)OC)C(C)(C)C)n4)CC3)cc2)c[nH]1)C(C)(C)C` [QC-15, methyl ((1S)-1-(((2S)-2-(4-(1-(4-(2-((2S)-1-((2S)-2-((methoxycarbonyl)amino)-3,3-dimethylbutanoyl)-2-pyrrolidinyl)-1H-imidazol-4-yl)phenyl)-4-piperidinyl)-1H-imidazol-2-yl)-1-pyrrolidinyl)carbonyl)-2,2-dimethylpropyl)carbamate]: 4.57 to 99 nM.
